# From US7820663B2, “Substituted enaminones, their derivatives and uses thereof” (The Regents of the University of California, priority 2005, dated 2010)
row,Structure (SMILES),melting point [°C]
1,"CCOc1ccc(N/C=C(\C(=O)Nc2ccccc2)c2cc(C)no2)cc1 [Example 3, α-[[(4-Ethoxyphenyl)amino]methylene]-3-methyl-N-phenyl-5-isoxazoleacetamide]",114 to 115
2,"Cc1cc(/C(=C/Nc2ccc(Cl)cc2)C(=O)Nc2ccc(Cl)cc2)no1 [Example 8, N-(4-Chlorophenyl)-α-[[4-(chlorophenyl)amino]methylene]-5-methyl-3-isoxazoleacetamide]",179 to 180
